Where “and” joins values, the source holds several entries; their conditions need not be identical. Equal values may be shown once. Bridges are numbered along the chain shown (N, C = ends). Where no end group is shown, it is not given here. [ ]: non-standard residue; d: D form. Lys(N3) = [N-]=[N+]=NCCCC[C@H](N)C(=O)O; Pra = C#CC[C@H](N)C(=O)O
Legend:
[1] = tested on: K. pneumoniae cells, BAA 1705 and BAA 2146; experiment: Whole-cell ELISA of anti-DNP recruitment to bacterial cell surfaces; format: cell-based, Klebsiella pneumoniae; conditions: AR-PCC plus anti-DNP; cy(LLFFF)-DNP 5 or 10 μM, cy(HNGPT)-DNP 50 and 100 μM
Source text: FIG. 12 is a plot of 450 nm absorbances obtained from a cell-based ELISA assay conducted on two strains of K. pneumoniae cells, BAA 1705 (black) and BAA 2146 (grey), that were either untreated or opsonized by EPIs (AR-PCCs) and/or antibodies. […] This establishes EPI-driven opsonization by cy(LLFFF)-DNP (SEQ ID NO:5). […] This indicates opsonization by cy(LLFFF)-DNP (SEQ ID NO:5) is specific and is driven by the ligand cy(LLFFF) (SEQ ID NO:5), rather than the Lys(DNP) moiety.
The protocol for detecting anti-DNP recruitment to bacterial cell surfaces is as follows. […] After washing, bacteria were incubated with HRP conjugated secondary antibody (Bio-Rad) at a dilution of 1:10,000 for 1 h at 37° C. Unbound antibody was washed off by using PBS-BSA and the cells were then developed by using TMB reagent. […] Anti-MrkA antibody was procured from Biorbyt (orb51318) and used at a concentration of 5 μg/mL, and K. pneumoniae antiserum was obtained from abcam (ab20947) and used at a concentration of 5 μg/mL.

[2] = tested on: K. pneumoniae cells (strain BAA 2146); experiment: Flow cytometry of AR-PCC-driven opsonization by anti-DNP antibodies; format: cell-based, Klebsiella pneumoniae
[3] = tested on: K. pneumoniae cells (strain BAA 1705); experiment: Gentamicin protection assay: phagocytosis and opsonophagocytic killing (OPK) by macrophages; format: cell-based, Klebsiella pneumoniae; conditions: 1 h
Procedure: FIGS. 7A and 7B show a gentamicin protection assay that evaluates EPI-driven phagocytosis and opsonophagocytic killing (OPK) of K. pneumoniae cells by murine bone-marrow-derived macrophages. FIG. 7A is a flow diagram depicting the assay used to evaluate EPI-driven opsonophagocytic killing (OPK) of K. pneumoniae cells. Briefly, K. pneumoniae cells (strain BAA 1705) opsonized by EPIs (AR-PCCs) and anti-DNP antibodies were incubated with macrophages for 1 or 24 h. Macrophages were lysed, and the lysate was plated to obtain bacterial colonies that were subsequently counted. FIG. 7B is a plot of colony counts for various samples subjected to the OPK assay. […] All EPIs (AR-PCCs) were used at a 5 μM concentration, measurements were conducted in triplicate, and error bars reflect standard deviations. cy(LLFFA) is SEQ ID NO:11.
It also tested whether DNP-conjugated EPIs could promote the opsonophagocytic killing (OPK) of K. pneumoniae by macrophages. This was tested by using an OPK assay. Briefly, K. pneumoniae cells were treated with EPI and then anti-DNP antibody before being exposed to macrophages for either 6 or 24 hours. During this incubation period, macrophages that recognize K. pneumoniae cells will phagocytose them, and phagocytosed bacteria will remain viable for up to 6 hours, but within 24 hours are rendered inviable by OPK. Thus, macrophages were isolated after 6 and 24 hours of incubation with K. pneumoniae, lysed them, and plated and grew the lysate, which yielded bacterial colonies that reflect the phagocytosis (at 6 hrs) or OPK (at 24 hrs) of bacteria.
Given that cy(LLFFF)-DNP (SEQ ID NO:5) recruits antibodies to K. pneumoniae surfaces, it was expected that K. pneumoniae opsonized in this manner would be more susceptible to phagocytosis by macrophages. AR-PCC-driven phagocytosis and OPK were quantified by a gentamicin protection assay, as depicted in FIG. 7A. For this assay, K. pneumoniae cells (strain BAA 1705) were treated with cy(LLFFF)-DNP (SEQ ID NO:5), opsonized by anti-DNP antibodies, and then incubated with murine bone-marrow-derived macrophages (BMDMs). BMDMs were subsequently exposed to a solution containing gentamicin, to which K. pneumoniae strain BAA 1705 is susceptible, to kill any extracellular bacteria. Phagocytosed bacteria remain viable inside BMDMs for at least 1 h, yet are rendered inviable after 24 h by OPK (FIG. 13). Macrophages harvested at 1 h and 24 h were lysed and plated to generate bacterial colonies, which were enumerated to quantify phagocytosis and OPK.
Opsonophagocytic killing (OPK) assays. Klebsiella pneumoniae BAA1705 was treated with DNP-PCCs followed by incubation with anti-DNP antibody, as described above in the “Cell-Based ELISAs” section. These opsonized bacteria were then used to infect BMDMs at a multiplicity of infection of 50 for 0.5 h at 37° C. Bacteria were then washed by using RPMI 1640 Media and BMDMs were left in cell culture medium containing gentamicin (100 μg/ml). After 1 h and 24 h BMDMs were washed to remove gentamicin and intracellular bacteria were harvested by lysing BMDMs in RPMI media containing 0.2% Triton X 100. Bacterial CFUs were enumerated by plating onto LB agar. Bacterial counts at 1 h indicated the degree of opsonization while those at 24 h served as a measure of microbicidal activity of macrophages. For these measurements, anti-MrkA antibody and K. pneumoniae antiserum were used at dilutions of 5 μg/mL each.

[4] = tested on: live or heat-killed MRSA cells; experiment: ELISA of PCC-driven SAv-HRP recruitment to MRSA cells; format: cell-based, Staphylococcus aureus; conditions: without or with 0.4 micrograms/mL tunicamycin
Procedure: FIG. 16A-16B are graphs showing PCC-driven recruitment of streptavidin-horseradish peroxidase (SAv-HRP) conjugate to live MRSA cells (FIG. 16A) or heat-killed MRSA cells (FIG. 16B) cultured under different antibiotic conditions via enzyme-linked Immunosorbent Assays (ELISAs). All tests were conducted by coating the antigen (MRSA cells) onto the wells of 96-well plates and then exposing the wells solutions containing biotinylated PCCs, then SAv-HRP, then HRP substrate followed by detection via absorbance at 450 nm. Absorbance values greater than the “no PCC” background indicate that several PCCs recruit SAv-HRP to either live cells (FIG. 16A) or heat-killed cells (FIG. 16B) cultured either without antibiotic (“−tunicamycin”, first three bars in each set) or with 0.4 micrograms/mL of tunicamycin (“+tunicamycin”, last three bars in each set), which reduces the expression of wall teichoic aids by MRSA. All measurements were conducted in triplicate and error bars reflect standard deviations. […]
The recruitment ability of selected PCCs was assessed by PCC-driven recruitment of streptavidin-horseradish peroxidase (SAv-HRP) conjugate to live MRSA cells (FIG. 16A) or heat-killed MRSA cells (FIG. 16B) cultured under different antibiotic conditions via enzyme-linked Immunosorbent Assays (ELISAs). […]

For “cy(HNGPT)-DNP: control AR-PCC, DNP-conjugated dummy ligand ([Lys(N3)]HNGPT[Pra]; triazole 1-7; also: DNP-conjugated) [reference compound]”, the “450 nm absorbance, anti-DNP recruitment to cells” value [1] was “Much smaller signals” and the “fluorescence intensity of cells (predominantly)” value ([2]; AR-PCC at 50 μM plus Alexafluor 488 anti-DNP, strain BAA 2146) was < 1.0×10^1.

“cy(LLFFF)-DNP: cy(LLFFF) tagged with a DNP-modified lysine residue; lead AR-PCC ([Pra]LLFFF[Lys(N3)]; bridge 1-7; not fully specified (bridges); printed as cy(LLFFF)-DNP; also: tagged with a DNP-modified lysine residue, position not given here)” was tested, and the “phagocytosis at 1 h, AR-PCC only (no anti-DNP)” value ([3]; AR-PCC 5 μM) was “None of these treatments elicited phagocytosis above basal levels”, the “colony counts at 1 h, AR-PCC plus anti-DNP antibody” value ([3]; AR-PCC 5 μM, murine BMDMs) was 89,000 CFU and 85,000 CFU and the “level of phagocytosis lower than that induced by K. pneumoniae antiserum and anti-MrkA treatment” value ([3]; plus anti-DNP) was “about 15%”. The “450 nm absorbance, anti-DNP recruitment to cells” value [1] was “much larger signal” and the “fluorescence of cells (opsonization by anti-DNP)” value ([2]; cy(LLFFF)-DNP 1 or 5 μM, cy(HNGPT) control 50 μM, plus fluorescent anti-DNP) was “much higher fluorescence”.

“cy(akkrp) ([Lys(N3)][dA][dK][dK][dR][dP]X; bridge 1-7; not fully specified (residue 7, bridges); printed as cy(akkrp))” was tested, and the “SAv-HRP recruitment to MRSA cells” value [4] was “Standout recruiting peptides”.

With “cy(kpdew): PCC to MRSA peptidoglycan, D-amino acids ([Lys(N3)][dK][dP][dD][dE][dW]X; bridge 1-7; not fully specified (residue 7, bridges); printed as cy(kpdew))” the “SAv-HRP recruitment to MRSA cells” value [4] was “Standout recruiting peptides”.

Reference: patent publication US12209142B2, “SARS-CoV-2 epitope-targeted peptide immunostimulants” (Institute for Systems Biology, priority 2020, dated 2025)
